Data reported in patent US20060206946A1, “Method of disrupting heme transport in nematodes and of modelling and evaluating eukaryotic heme transport” (priority 2005, published 2006).

Assays:
C. elegans [1] = assay: Metabolic labeling with 59Fe or 59Fe-heme, heme isolation and TLC; assay type: in vivo, Caenorhabditis elegans; details: for radiolabel signal in heme extracted from labeled worms: 9.4×10^6 DPM, mCeHR
Description: (E) Metabolic labeling in C. elegans cultured in the presence of heme. Synchronized L1 larvae were grown in mCeHR medium containing either ^59Fe or ^59Fe-heme (9.4×10^6 DPM) and the worms harvested as gravid adults. Heme was extracted and concentrated, and then resolved by TLC followed by detection with a PhosphorImager (top panel). Lane 5, ^59Fe-heme control. Radiolabeled bands were quantified in a gamma counter and CPM normalized to total protein (bottom panel). To correct for non-specific binding of the radiolabeled Fe and heme, parallel experiments were conducted in the presence of 1 mM sodium azide (samples 1 and 3).
Preparation of hemin, hemin analogs and [^59Fe]Heme. Fresh stock solutions of hemin or hemin analogs (Frontier Sciences, Logan, Utah) were prepared immediately prior to use by dissolving required amounts in 0.3 M ammonium hydroxide. The pH of the stock solution was adjusted to pH 8.0 with 6 N HCl, and filter sterilized ([…]). The upper limit of free iron was estimated to be 3.8 nM/1 μM of hemin chloride by inductively coupled plasma-mass spectrometry (ICP-MS) analysis. For synthesis of ^59Fe-heme, 50 ml of glacial acetic acid was stirred under a constant flow of N2 at 60° C. followed by addition of 12 mg of protoporphyrin IX in pyridine for 30 min. To this mixture, 0.85 μCi of FeCl3 (specific activity 35.77 mCi/mg, Perkin Elmer, Boston, Mass.) was stirred in for an additional 3 h. Heme was extracted from this mixture with ethyl acetate followed by extensive washes with 4 N HCl and distilled water to remove unincorporated protoporphyrin IX and iron. The heme thus obtained was concentrated by evaporation of the ethyl acetate using a RotaVapor and frozen at −20° C. until further use. Total amount of ^59Fe-heme synthesized by this method was measured using a Packard Gamma Counter (˜21% efficiency). The purity of heme was determined by thin layer chromatography using silica gel 60 matrix in an NH4OH-saturated chamber with 2,6-lutidine/water solvent. We estimated the specific activity of ^59Fe-heme synthesized to be ˜2.8×10^6 DPM/nmol.
Metabolic Labeling, Heme Isolation and Thin Layer Chromatography. Equal numbers of L1 worms were grown at 20° C. in mCeHR medium with 20 μM hemin and supplemented with 9.4×10^6 DPM of either ^59Fe-heme or ^59FeCl3. Radiolabeled adult worms were harvested by first incubating them in M9 buffer for 30 min to empty the gut contents. […] It was experimentally determined that this concentration of NaN3 was not lethal to worms. […] Plates were exposed to a PhosphorImager and the radiolabel signal corresponding to heme was excised and analyzed using a gamma counter. Counts (DPM) obtained were normalized for protein as determined by the bicinchoninic acid method (Sigma) performed on pre-aliquoted samples of intact worms. […]

C. elegans [2] = assay type: in vivo, Caenorhabditis elegans; details: in vivo
Description: (C) Fluorescent metabolic labeling of worms with either 40 μM hemin (images 1, 4) or 40 μM ZnMP/4 μM hemin (images 2, 3, 5, 6) for 3 h followed by confocal microscopy with a 546 laser (images 1-3) and DIC optics (images 4-6). Arrowheads indicate ZnMP fluorescence accumulation within intestinal cells and developing embryos. For clarity, the boxed image in 2 is magnified in images 3 and 6. (Bar=100 μm).
(D) Worms were incubated with 40 μM ZnMP/4 μM hemin for 16 h followed by a chase with 40 μM hemin. Worms were analyzed by epifluorescence microscopy (TRITC channel) and DIC optics. Experiments were performed either in the absence (images 1-4) or presence (images 5-8) of NaN3 during the chase periods to test for the non-specific loss of ZnMP fluorescence. Photomicrograph 4 is shown at a lower power to depict the complete loss of ZnMP fluorescence. (Bar=100 μm). For (C) and (D), four separate experiments were performed with a minimum of 50 worms per data point per experiment. The data are representative for >90% of worms analyzed.
Because of the nature of the growth curve, we reasoned that heme homeostatis in C. elegans may be regulated in accordance with organismic needs and metabolic demands. […]
Pulse-Chase Analysis. […] At timed intervals, aliquots of worms were removed into the appropriate medium containing 10 mM NaN3 mounted on a slide and immediately analyzed with a 543 He/Ne laser on a Zeiss 410 confocal microscope, or with a Peltier-cooled Retiga 1300 12-bit CCD camera fitted on to a Leica DMIRE2 autofluorescence/DIC microscope. Images were further analyzed with SIMPLEPCI v5.2 Software (Compix, Inc.). […] No loss of fluorescence was observed when labeling experiments were performed in parallel in the presence of 1 mM NaN3 during the chase period and when worms were incubated in medium without hemin. To account for background autouluorescence in C. elegans, the sensor gain of the CCD camera or the laser was set to subtract any fluorescence obtained from control worms incubated in the presence of 40 μM hemin.

[3] = tested on: C. elegans wild-type N2 strain; assay: Worm culture and growth assay in axenic CeHR/mCeHR liquid medium; assay type: in vivo; details: for support of worm growth as heme source: in vivo
Description: (D) Biphasic response of C. elegans cultured in the presence of increasing amounts of hemin chloride (μM). Equal numbers of synchronized L1 larvae were grown in 24-well plates in mCeHR medium for 9 days and quantified (worms/μl) by microscopy. Each data point represents the mean±SD from three separate experiments performed in triplicate.
(A) Aerobic growth of C. elegans in mCeFIR medium with 20 μM hemin supplemented with either gallium protoporphyrin IX (GaPP) or gallium salts. Synchronized L1 larvae were grown for 9 days in 24-well plates and quantified (worms/μl) by microscopy. Each data point represents the mean from a single experiment, and each experiment was performed in triplicate. Inset depicts the GaPP analysis at lower concentrations for clarity.
(B) Effect of heme on the cytotoxicity of GaPP. Synchronized L1 larvae were inoculated in 24-well plates containing mCeHR medium with either 0, 2, 4, or 6 μM GaPP and increasing hemin (μM). The number of worms per μl was measured on day 9 and the data are presented as mean±SD.
FIG. 9 depicts worm utilization of heme-iron under iron deprivation. Equal numbers of synchronized L1 larvae were grown in the presence of 4, 20, and 100 μM hemin, either in basal mCeHR medium (set 1), or basal medium lacking exogenous iron (set 2), or as set 2 with 1 μM of the iron chelator ferrozine (set 3), or as set 3 with 486 μM ferrous ammonium sulfate (set 4). These values of ferrozine and iron were empirically determined by performing dose-response experiments and analyzing worm growth. The number of worms per μl was measured on day 9 and the data presented as mean±SD performed in triplicate. P<0.001 between sets 1 and 3.
To qualitatively and quantitatively determine the heme requirement of C. elegans, we assessed growth at various heme concentrations. Equal numbers of L1 larvae were inoculated in CeHR medium with either no cytochrome c and hemin, or with cytochrome c and increasing amounts of hemin (FIG. 4A). The effect of hemin became apparent within 48 hours and by 9 days, the heme-deplete worms were severely growth retarded at the L1/L2 stages. […] However, this stimulatory effect of heme was toxic to worms grown at heme concentrations >750 μM. To quantitatively assess the effect of heme on worms, we counted the number of live worms grown under different concentration of heme using DIC microscopy. […] On the basis of this association between heme and the growth and reproduction of C. elegans, we conclude that the biphasic nature of heme is likely due to the need for heme under heme-deprived conditions to perform essential metabolic functions, and the lethality of heme at high concentrations can be attributed to its cytotoxic activity.
Worm Culture and Growth Assays. Free-living worms were cultured in CeHR axenic liquid medium (Dr. Eric Clegg, Personal Communication). […] CeHR medium was modified (henceforth called mCeHR) to eliminate all sources of exogenously added heme; basal growth medium comprised 20 μM hemin chloride (Frontier Scientific, Logan, Utah) and 150 μM of ferrous ammonium sulfate (Sigma Chemicals). Worm strains were grown in mCeHR medium under aerobic conditions in tissue culture flasks at 20° C. ˜3.7×10^6 worms were routinely obtained after 3.5 to 4 days in a T75 flask with 30 ml basal medium from an initial inoculum of −1.5×10^5 worms. For initial culturing of worms in axenic media, three generations of worms were sequentially bleached (1.1% bleach/0.55 M NaOH) to eliminate any contaminating bacterial carryover from agar plates. In all dose-response experiments, worms were growth synchronized by treating the gravid hermaphrodite worms with bleach to dissolve adult worms. The eggs, resistant to bleach, were liberated from the carcasses and extensively washed with M9 buffer followed by overnight hatching in M9 buffer to synchronize growth. By harvesting at appropriate time intervals, synchronous larval stages and adult staged worms were collected for experimental manipulations. […]

## [N-]=[N+]=[N-] [NaN3, sodium azide]
C. elegans [1]; 1 mM NaN3
  lethality to worms: not lethal

## CCC1=C(C)c2cc3[n-]c(cc4[n-]c(cc5nc(cc1n2)C(C)=C5CC)c(C)c4CCC(=O)O)c(CCC(=O)O)c3C.[Zn+2] [ZnMP, zinc mesoporphyrin IX]
C. elegans [2]
  time to discernable fluorescence signal in embryos: ≤ 130 min

## C=CC1=C(C)c2cc3[n-]c(cc4nc(cc5[n-]c(cc1n2)c(C)c5C=C)C(C)=C4CCC(=O)O)c(CCC(=O)O)c3C.[59Fe+2] [^59Fe-heme]
C. elegans [1]
  radiolabel signal in heme extracted from labeled worms: specific signal
C. elegans [1]; in the presence of NaN3
  59Fe-heme uptake in metabolically inhibited worms: negligible

## [Cl][59Fe]([Cl])[Cl] [^59Fe]
C. elegans [1]
  radiolabel signal in heme extracted from labeled worms: no radiolabeled signal

## O=S(=O)([O-])c1ccc(-c2nnc(-c3ccccn3)nc2-c2ccc(S(=O)(=O)[O-])cc2)cc1.[Na+].[Na+] [ferrozine]
[3]; 1 μM ferrozine, medium lacking exogenous iron
  effect on diminution in worm growth under iron deprivation: further accentuated

## Cytochrome c: hemoprotein used as heme source for worm growth
[3]
  support of worm growth as heme source: sustained worm growth

## hemoglobin: hemoprotein used as heme source for worm growth
[3]
  support of worm growth as heme source: sustained worm growth
